The values that follow are results of earlier work, collected in publication PMC10872542 (Structure (London, England : 1993), 2023).

One may read the IC50 as the concentration that inhibits the measured activity by half.

This data set concerns TRPV5. To be noted: read-out: IC50 of TRPV5 inhibition.

For the compound `CC(OC(=O)CC1Sc2ccccc2NC1=O)c1nc2scc(-c3ccccc3)c2c(=O)[nH]1` (stereo not drawn) [ZINC9155420], the IC50 was around 3000 nM. For `O=C(CCN1C(=O)COc2ccccc21)OCc1nc2scc(-c3ccccc3)c2c(=O)[nH]1` [ZINC17988990], the IC50 was around 100 nM. In the case of `Cl.Cl.Cl.Cl.Cl.Cl.N.N.N.N.N.N.N.N.N.N.N.N.N.N.[O-2].[O-2].[Ru+3].[Ru+3].[Ru+4]` [ruthenium red], the IC50 is around 100 nM.
